Series [1] has as its system serotype I FCoV replicon RNA in BHK-F-Rep cells. The series can be described thus: microbe, parasite or virus in culture. Format: cell-based, feline coronavirus (serotype I FECV field strain). Conditions: for IC50: BHK-F-Rep cells, median GFP intensity. The procedure: The BHK-F-Rep cells would specifically allow the evaluation of inhibitors that target viral replication, which includes basic processes such as RNA synthesis and viral polyprotein processing. […] GFP expression was assessed by flow cytometry. […] In addition to GFP detection, immunofluorescence staining of the N-protein was performed as a control of the replication inhibition in an inhibitor experiment (Fig. 2D).
For each inhibitor test, the BHK-F-Rep was cultured in T75 or T150 flasks, washed once with PBS, cells detached with Gibco TrypLE Express (Trypsin; Thermo Fisher Scientific), and then seeded in 12-well plates (25,000 cells/well) in 1 mL/well of cell-culture medium (MEM +10% FBS +50 U/mL Pen/Strep). Directly after seeding, the inhibitor was added to the cells. The plates were incubated for 96 hours at 37°C with 5% CO2.
To assess the GFP expression in BHK and Fcwf-4 cells, the supernatant was removed, the cells were washed once with PBS and then detached with trypsin and transferred to a 96-well plate. The plate was centrifuged at 1,700 rpm for 5 minutes and the supernatant discarded. Cells were once washed again with PBS and again centrifuged at 1,700 rpm for 5 minutes and the supernatant was discarded. For the replicon conditions, the cells were then stained with the LIVE/DEAD Fixable Aqua Dead Cell Stain Kit for 405 nm excitation (Invitrogen) according to the manufacturer’s instructions. As the dead cell control, one of the samples was placed at 60°C for 20 minutes and then stained. After staining, the cells were washed with PBS and centrifuged (1,700 rpm for 5 minutes), and the supernatant was discarded. For the Fcwf-4 cells infected with the recFCoV-GFP, the staining and washing step was not performed. Then, all the cells were washed with PBS before being resuspended in 200 µL PBS and transferred to Falcon 5 mL round-bottom tubes with cell strainer cap (Corning Incorporated) and kept in the dark on ice. Samples were acquired in Cytek Aurora with SpectroFlo Software Version 3.1.0 and analyzed using FlowJo software (FlowJo_v108.1).
Instead, to monitor inhibition, we determined the percent of GFP-positive cells. In either case, the median intensity of the GFP signal or the percentage of GFP-positive cells was normalized to the measurements of untreated conditions, by defining the untreated results of each triplicate as 100%. The value was then subtracted by 100 to get the value representing the percentage of inhibition.
All conditions were tested in triplicates on three different days always including a negative control. Statistical analysis and generation of graphs were performed using GraphPad Prism version 9.3.1 for Windows. The same as CC50, 50% inhibitory concentration (IC50) was determined in GraphPad Prism version 9.3.1 for Windows.

The subject of series [2] is recFCoV-GFP (serotype I FIPV strain Black). Kind of series: Inhibitor test with recFCoV-GFP-infected Fcwf-4 cells, flow cytometry of GFP-positive cells. The conditions noted are these: read-out: IC50 recFCoV-GFP flow cytometry. The class given is cell-based, feline infectious peritonitis virus. The text has this: (§1) Finally, we assessed GC376 and Remdesivir individually or in combination in a virus infection system. We used the previously described recombinant recFCoV-GFP that is based on the laboratory-adapted serotype I FIPV strain Black and contains the GFP gene as a replacement for the accessory genes 3a–c ([39]). Using this virus, we could measure inhibition by assessing GFP expression or by virus titration. However, the assessment of GFP expression by measuring the median fluorescent intensity, as we did for BHK-F-rep cells, was not possible since recFCoV-GFP-infected Felis catus whole fetus 4 (Fcwf-4) cells died before the reduction of GFP expression was observable. Instead, we determined the number of GFP-positive cells to monitor inhibition (Fig. 5A through C). In parallel, we determined the virus titers released into the cell culture supernatant from inhibitor-treated and infected cells (Fig. 5A through C). […] The results are shown in Fig. 5C and can be compared with Fig. 4A (BHK-F-Rep inhibition) and IC50 values for the different experimental systems are shown in Table 2. […]
To assess the GFP expression in BHK and Fcwf-4 cells, the supernatant was removed, the cells were washed once with PBS and then detached with trypsin and transferred to a 96-well plate. […] Samples were acquired in Cytek Aurora with SpectroFlo Software Version 3.1.0 and analyzed using FlowJo software (FlowJo_v108.1). […]
Background: In flow cytometry, cells or beads pass a laser one at a time.

The subject of series [3] is BHK-F-Rep cells. The series can be described thus: In vitro cytotoxicity assay (CytoTox-Glo) on BHK-F-Rep cells. Format: cell-based, hamster. As to the method: (§2) To define cytotoxic concentrations of the individual inhibitors, cytotoxicity assay with the CytoTox-Glo Cytotoxicity Assay (Promega) was performed according to the manufacturer’s instructions. As a positive control, 75 µg/well of cycloheximide was used. The inhibitors were diluted in DMSO to concentrations so that 2 µL/well could be added to reach the tested concentrations. For luminescence detection, a Hidex Sense with the HidexPlateReader Software 1.0.0 was used. Detection parameters were set for luminescence detection with an infrared cutoff of 1 second. As described by Promega, the difference of viable vs dead cells was calculated in Microsoft Excel 2016, and 50% of cytotoxic concentration (CC50) was determined in GraphPad Prism version 9.3.1 for Windows. The data were fitted to a nonlinear regression curve with log(inhibitor) vs normalized response with variable slope.

Series [4] deals with recFCoV-GFP (serotype I FIPV strain Black). The series can be described thus: Inhibitor test with recFCoV-GFP-infected Fcwf-4 cells, viral titers in supernatant (TCID50). Conditions: read-out: IC50 recFCoV-GFP viral titers. The class given is cell-based, feline infectious peritonitis virus.
From the text: as §1
All conditions were tested in triplicates on three different days always including a negative control. […] The selectivity index (SI) was calculated in Microsoft Excel 2016 as follows: SI = CC50/IC50.

Series [5] is described as follows: In vitro cytotoxicity assay (CytoTox-Glo) on BHK-F-Rep cells. The class given is cell-based, hamster. The conditions noted are these: hamster. As to the method:
as §2

Series [6] is described as follows: Cell viability testing in recFCoV-GFP infected Fcwf-4 cells. Format: cell-based. Conditions: cat (Felis catus).
From the text: Read-out as with the BHK-F-Rep cells done via flow cytometry and detection of GFP-positive cells (relative Inhibition) including IC50 values are shown in black with the left y-axis. As with the BHK-F-Rep cells, data shown on cell viability testing in the recFCoV-GFP infected Fcwf-4 cells are shown in black with the right y-axis including CC50 values. Additional data on viral titers of the recFCoV-GFP infected Fcwf-4 cells treated with the inhibitors and corresponding IC50 values are shown in red. The black and red lines in the graphs represent the mean value of the data collected from three independent experiments of individual drugs or their combination, respectively. The gray and red shaded areas represent the standard error of the mean.
To define cytotoxic concentrations of the individual inhibitors, cytotoxicity assay with the CytoTox-Glo Cytotoxicity Assay (Promega) was performed according to the manufacturer’s instructions. As a positive control, 75 µg/well of cycloheximide was used. […] For luminescence detection, a Hidex Sense with the HidexPlateReader Software 1.0.0 was used. Detection parameters were set for luminescence detection with an infrared cutoff of 1 second. As described by Promega, the difference of viable vs dead cells was calculated in Microsoft Excel 2016, and 50% of cytotoxic concentration (CC50) was determined in GraphPad Prism version 9.3.1 for Windows. […]
[7] abbreviates: Alphacoronavirus 1, 96 h, 96 hours, flow cytometry.

As a reminder, the IC50 is the concentration at which inhibition is half-maximal. The CC50 is the concentration at which the toxic effect on the cells reaches its halfway point. A high value points to lower toxicity to the cells.

The structures appear in SMILES notation. “And” between values parts separate entries of the source, which are not always exact repeats. Equal entries are not always repeated. “Also recorded” adds a separate entry of the source. Structures can show the parent of a compound that is named as a salt. Where two headings read alike, the source gives them in different places.

Take `CC(C)C[C@H](NC(=O)OCc1ccccc1)C(=O)N[C@@H](C[C@@H]1CCNC1=O)C(O)S(=O)(=O)[O-].[Na+]` (stereo partly drawn) [GC376]: the “GFP expression of BHK-F-Rep cells after treatment (replicon-cured cell line)” value in series [1] (two consecutive treatments of 96 hours with 20 µM) is “undetectable”.

In the case of `CC(C)C[C@H](NC(=O)OCc1ccccc1)C(=O)N[C@@H](CC1CCNC1=O)C(O)S(=O)(=O)O` (stereo partly drawn) [GC376], the IC50 in series [2] (Fcwf-4 cells, MOI 0.01, 48 hours, GFP-positive cells) was 840 nM; in series [4] (Fcwf-4 cells, MOI 0.01, 48 hours, TCID50 of supernatant), 1010 nM; in series [1] (96 hours, flow cytometry, read-out: IC50), < 1000 nM and 990 nM. This molecule gave a CC50 in series [3] of more than 200 µM.

Regarding `CC(C)(C)[C@H](NC(=O)C(F)(F)F)C(=O)N1C[C@H]2[C@@H]([C@H]1C(=O)N[C@H](C#N)C[C@@H]1CCNC1=O)C2(C)C` [Nirmatrelvir], in series [5], the CC50 was more than 200 µM. Further, the IC50 is less than 1000 nM in series [1] (setting [7]) and 780 nM in series [1] (96 hours, flow cytometry).

The molecule `CCN(CC)Cc1cc(Nc2ccnc3cc(Cl)ccc23)ccc1O` [Amodiaquine, Amodiaquine dihydrochloride] returned a CC50 in series [5] of 47.2 µM. The “inhibitory effect on BHK-F-Rep cells” value in series [1] (96 hours, flow cytometry, in words) is “did not observe an inhibitory effect; also recorded: did not show any inhibitory effect”. The IC50 in series [1] (setting [7]) is more than 40000 nM.

`CCC(CC)COC(=O)[C@H](C)N[P@](=O)(OC[C@H]1O[C@@](C#N)(c2ccc3c(N)ncnn23)[C@H](O)[C@@H]1O)Oc1ccccc1` [Remdesivir]: the CC50 at 48 h in series [6] is more than 200 µM. Also, the IC50 in series [2] (Alphacoronavirus 1, 48 h) was 1150 nM; in series [4] (Alphacoronavirus 1, 48 h), 1500 nM. Besides, the midpoint of cytotoxicity in series [5], the CC50, lay at 99.1 µM.

Source of the values: paper PMC10878086, “An RNA replicon system to investigate promising inhibitors of feline coronavirus” (Journal of Virology, 2024).
